Values quoted from earlier work in paper PMC11956011, “An Amazing 30-Year Journey around the DABO Family: A Medicinal Chemistry Lesson on a Versatile Class of Non-nucleoside HIV-1 Reverse Transcriptase Inhibitors” (Journal of Medicinal Chemistry, 2025).
Where two headings read alike, the source gives them in different places.

Key:
[1] = test system: HIV-1 RT (WT, recombinant); details: for IC50: read-out: IC50 (HIV-1 RT)
HIV-1 NL4-3 wt = details: read-out: EC50: NL4-3 wt
[2] = test system: K103N HIV-1 mutant strain
[3] = test system: Y181C HIV-1 mutant strain; details: Fig 5
[4] = test system: Y188L HIV-1 mutant strain
L100I HIV-1 RT = details: Fig 5
[5] = test system: IRLL98 clinical isolate (K101Q, Y181C, G190A); details: Fig 9
Y181I HIV-1 RT = details: Fig 9

Compound: 2-(cyclopentylthio)-6-[(1R)-1-(2,6-difluorophenyl)ethyl]-5-methyl-4(3H)-pyrimidinone [[+]-38]
- IC50 ([1]; Fig 5, printed without unit): 8 nM
- EC50 (HIV-1): 2 nM
- SI (HIV-1): > 100000
- CC50 (mock-infected cells; Fig 5): > 200000 nM

Compound: CCOCn1c(Cc2ccccc2)c(C(C)C)c(=O)[nH]c1=O [Emivirine, reference compound]
- EC50 (HIV-1; Fig 4): 4.2 nM
- SI (HIV-1; Fig 4): 44000
- CC50 (mock-infected cells): 186000 nM

Compound: Cc1cccc(Cc2cc(=O)[nH]c(OC3CCCCC3)n2)c1 [compound 6]
- SI (HIV-1; CC50/EC50, Fig 3): > 400

Compound: CCC(C)Oc1nc(Cc2cc(C)cc(C)c2)c(C)c(=O)[nH]1 (centres unmarked) [compound 7]
- SI (HIV-1; CC50/EC50, Fig 3): > 400

Compound: Nc1cc(Cl)nc(Sc2ccccc2)n1 [compound 20]
- EC50 (HIV-1; Fig 4): 90000 nM
- SI (HIV-1; Fig 4): 2.3

Compound: CCC(C)Oc1nc(N)cc(S(=O)(=O)c2cccc(C)c2)n1 (centres unmarked) [compound 22]
- SI (HIV-1; Fig 4): > 43
- CC50 (mock-infected cells; Fig 4): > 200000 nM

Compound: CCOC1CSc2nc(=O)c(CC)c(Cc3cc(C)cc(C)c3)n21 (centres unmarked) [compound 24]
- SI (HIV-1; CD50/ED50, Fig 4): > 140
- ED50 (HIV-1; Fig 4): 700 nM
- CD50 (mock-infected cells; Fig 4): > 100 µM

Compound: Nc1nc2c(c(=O)[nH]1)CCC2c1ccccc1 (centres unmarked) [compound 27, 2-amino-7-phenyl-6,7-dihydro-5H-cyclopenta[d]-4(3H)-pyrimidinone]
- anti-HIV-1 activity (in words) (HIV-1): lacked anti-HIV-1 activity

Compound: CCC(C)Sc1nc(O)cc(Cc2c(Cl)cccc2Cl)n1 (centres unmarked) [compound 28]
- IC50 ([1]; Fig 5): 100 nM
- SI (HIV-1; Fig 5): > 1428
- CC50 (mock-infected cells; Fig 5): > 200000 nM

Compound: CCC(C)Sc1nc(O)c(C)c(Cc2c(Cl)cccc2Cl)n1 (centres unmarked) [compound 29]
- IC50 ([1]; Fig 5): 60 nM
- SI (HIV-1; Fig 5): > 4000
- CC50 (mock-infected cells; Fig 5): > 200000 nM

Compound: CCC(C)Sc1nc(O)cc(Cc2c(F)cccc2F)n1 (centres unmarked) [compound 31]
- IC50 ([1]; Fig 5): 50 nM
- SI (HIV-1; Fig 5): > 5000
- CC50 (mock-infected cells; Fig 5): > 200000 nM

Compound: CCC(C)Sc1nc(O)cc(C(C)c2c(F)cccc2F)n1 (centres unmarked) [compound 34]
- SI (HIV-1; Fig 5): > 6666
- EC50 (HIV-1; Fig 5, MT-4 cells): 30 nM
- CC50 (mock-infected cells; Fig 5): > 200000 nM

Compound: CCCCSc1nc(O)c(C)c(C(C)c2c(F)cccc2F)n1 (centres unmarked) [compound 37]
- EC50 (HIV-1; Fig 5, MT-4 cells): 8 nM

Compound: CCCCSc1nc(C(C)c2c(F)cccc2Cl)cc(=O)[nH]1 (centres unmarked) [compound 39]
- EC50 (HIV-1 NL4-3 wt; Fig 5): 0.3 nM
- EC50 ([2]; Fig 5): 1100 nM
- EC50 [3]: 3900 nM
- EC50 ([4]; Fig 5): 5600 nM
- ID50: WT ([1]; Fig 5): 10 nM
- ID50: L100I (L100I HIV-1 RT): 600 nM
- CC50 (mock-infected cells; Fig 5): > 73000 nM

Compound: CC(c1cc(=O)[nH]c(SC2CCCC2)n1)c1c(F)cccc1Cl (centres unmarked) [compound 40]
- EC50 (HIV-1 NL4-3 wt; Fig 5): 0.3 nM
- EC50 ([2]; Fig 5): 900 nM
- EC50 [3]: 3000 nM
- EC50 ([4]; Fig 5): > 71000 nM
- ID50: WT ([1]; Fig 5): 15 nM
- ID50: L100I (L100I HIV-1 RT): 1100 nM
- CC50 (mock-infected cells; Fig 5): > 71000 nM

Compound: Cc1c(C(C)c2c(F)cccc2Cl)nc(SC(C)C)[nH]c1=O (centres unmarked) [compound 41]
- EC50 ([2]; Fig 5): 140 nM
- EC50 [3]: 250 nM
- EC50 ([4]; Fig 5): 3400 nM
- CC50 (mock-infected cells; Fig 5): > 15000 nM

Compound: CCCSc1nc(C(C)c2c(F)cccc2Cl)c(C)c(=O)[nH]1 (centres unmarked) [compound 42]
- EC50 (HIV-1 NL4-3 wt; Fig 5): 0.05 nM
- EC50 ([2]; Fig 5): 350 nM
- EC50 [3]: 260 nM
- EC50 ([4]; Fig 5): > 1500 nM
- ID50: WT ([1]; Fig 5): 0.9 nM
- ID50: L100I (L100I HIV-1 RT): 90 nM
- CC50 (mock-infected cells; Fig 5): > 1500 nM

Compound: Cc1c(C(C)c2c(F)cccc2Cl)nc(SC2CCCC2)[nH]c1=O (centres unmarked) [compound 43]
- EC50 (HIV-1 NL4-3 wt; Fig 5): 0.03 nM
- EC50 ([2]; Fig 5): 93 nM
- EC50 [3]: 230 nM
- EC50 ([4]; Fig 5): 2900 nM
- ID50: WT ([1]; Fig 5): 11 nM
- ID50: L100I (L100I HIV-1 RT): 120 nM
- CC50 (mock-infected cells; Fig 5): > 15000 nM

Compound: Cc1cc(=O)[nH]c(SCCN2C(=O)c3ccccc3C2=O)n1 [compound 74]
- SI (HIV-1; Fig 9): 61.6

Compound: O=C1c2ccccc2C(=O)N1CCSc1nc(Cc2c(F)cccc2F)cc(=O)[nH]1 [compound 75]
- EC50 (HIV-1; Fig 9): 17000 nM
- SI (HIV-1; Fig 9): > 5.9
- CC50 (mock-infected cells; Fig 9): > 100000 nM

Compound: COc1ccc(CSc2nc(Cc3c(Cl)cccc3Cl)c(C)c(=O)[nH]2)cc1 [compound 76]
- EC50 (HIV-1 NL4-3 wt; Fig 9): 7 nM
- EC50 ([2]; Fig 9): 4700 nM
- EC50 ([4]; Fig 9): > 32000 nM
- EC50 [5]: 47 nM
- ID50: WT ([1]; Fig 9): 4 nM
- ID50: Y181I (Y181I HIV-1 RT): 150000 nM
- CC50 (mock-infected cells; Fig 9): 32000 nM

Compound: COc1ccc(CCSc2nc(Cc3c(Cl)cccc3Cl)c(C)c(=O)[nH]2)cc1 [compound 77]
- EC50 (HIV-1 NL4-3 wt; Fig 9): < 0.14 nM
- EC50 ([2]; Fig 9): 870 nM
- EC50 ([4]; Fig 9): 6900 nM
- EC50 [5]: 0.22 nM
- ID50: WT ([1]; Fig 9): 26 nM
- ID50: Y181I (Y181I HIV-1 RT): 1500 nM
- CC50 (mock-infected cells; Fig 9): > 57000 nM
